Laboratory results: PMC7901646, “Pyrrolo[2′,3′:3,4]cyclohepta[1,2-d][1,2]oxazoles, a New Class of Antimitotic Agents Active against Multiple Malignant Cell Types” (Journal of Medicinal Chemistry, 2020)

Key:
Assay type in all cases: cell-based
CAKI-1 = assay: NCI-60 screen; settings: Homo sapiens, Renal Cancer
Procedure: (§1) All the synthesized compounds 51–76 were tested at a 10^–5 M concentration for their antitumor activity on the full NCI-60 panel comprising cancer cell lines derived from nine human cancer cell types (leukemia, non-small-cell lung, colon, central nervous system, melanoma, ovarian, renal, prostate, and breast).[50]

COLO 205 = assay: NCI-60 screen; settings: Homo sapiens, Colon Cancer
Procedure: as §1

HCT-116 = assay: NCI-60 screen; settings: Homo sapiens, Colon Cancer
Procedure: as §1

HCT-15 = assay: NCI-60 screen; settings: Homo sapiens, Colon Cancer
Procedure: as §1

HL-60(TB) = assay: NCI-60 screen; settings: Homo sapiens, Leukemia
Procedure: as §1

HT29 = assay: NCI-60 screen; settings: Homo sapiens, HT-29; Colon Cancer
Procedure: as §1

IGROV1 = assay: NCI-60 screen; settings: Homo sapiens, IGROV-1; Ovarian Cancer
Procedure: as §1

M14 = assay: NCI-60 screen; settings: Homo sapiens, Melanoma
Procedure: as §1

MCF7 = assay: NCI-60 screen; settings: Homo sapiens, Breast Cancer
Procedure: as §1

MDA-MB-231/ATCC = assay: NCI-60 screen; settings: Homo sapiens, Breast Cancer
Procedure: as §1

MDA-MB-435 = assay: NCI-60 screen; settings: Homo sapiens, Melanoma
Procedure: as §1

MOLT-4 = assay: NCI-60 screen; settings: Homo sapiens, Leukemia
Procedure: as §1

NCI-H460 = assay: NCI-60 screen; settings: Homo sapiens, Non-Small-Cell Lung Cancer
Procedure: as §1

NCI/ADR-RES = assay: NCI-60 screen; settings: Homo sapiens, Ovarian Cancer
Procedure: as §1

PC-3 = assay: NCI-60 screen; settings: Homo sapiens, Prostate Cancer
Procedure: as §1

RPMI-8226 = assay: NCI-60 screen; settings: Homo sapiens, Leukemia
Procedure: as §1

SF-268 = assay: NCI-60 screen; settings: Homo sapiens, CNS Cancer
Procedure: as §1

SF-295 = assay: NCI-60 screen; settings: Homo sapiens, CNS Cancer
Procedure: as §1

SK-OV-3 = assay: NCI-60 screen; settings: Homo sapiens, Ovarian Cancer
Procedure: as §1

SNB-19 = assay: NCI-60 screen; settings: Homo sapiens, CNS Cancer
Procedure: as §1

SR = assay: NCI-60 screen; settings: Homo sapiens, Leukemia
Procedure: as §1

SW-620 = assay: NCI-60 screen; settings: Homo sapiens, Colon Cancer
Procedure: as §1

TK-10 = assay: NCI-60 screen; settings: Homo sapiens, Renal Cancer
Procedure: as §1

UACC-62 = assay: NCI-60 screen; settings: Homo sapiens, Melanoma
Procedure: as §1

KM12 = assay: NCI-60 screen; settings: Homo sapiens, Colon Cancer
Text: (§2) on the full NCI-60 panel comprising cancer cell lines derived from nine human cancer cell types (leukemia, non-small-cell lung, colon, central nervous system, melanoma, ovarian, renal, prostate, and breast).[50]

LOX IMVI = assay: NCI-60 screen; settings: Homo sapiens, Melanoma
Text: as §2

NCI-H522 = assay: NCI-60 screen; settings: Homo sapiens, Non-Small-Cell Lung Cancer
Text: as §2

OVCAR-3 = assay: NCI-60 screen; settings: Homo sapiens, Ovarian Cancer
Text: as §2

HBL1 (ABC DLBCL) = assay: MTT cell proliferation, lymphoma; settings: Homo sapiens, 72 h; for activity at 1 µM: of untreated cells, read-out: Proliferating cells (%); for IC50: MTT
Procedure: (§3) All compounds were further tested at the concentration of 1 μM on four cell lines derived from distinct lymphoma histotypes, plus two with secondary resistance to the PI3Kδ inhibitor idelalisib[51] or to the BTK inhibitor ibrutinib.[52] […] For comparison, the same experiments were conducted using compound 3, but the response to it was minimal, and thus it was not considered further.
(§4) Established human cell lines derived from germinal center B-cell (GCB) (SU-DHL-10), activated B-cell (ABC) (HBL1) diffuse large B-cell lymphoma (DLBCL), mantle cell lymphoma (MCL) (MINO), splenic marginal zone lymphoma (SMZL) (parental VL51, VL51 idelalisib resistant clone, VL51 ibrutinib resistant clone) were cultured in culture RPMI-1640 media supplemented with fetal bovine serum (10%), penicillin–streptomycin–neomycin (∼5,000 units of penicillin, 5 mg of streptomycinm and 10 mg of neomycin/mL, Sigma), and L-glutamine (1%). Vincristine sulfate was purchased from Sigma-Aldrich. Cell line identities were confirmed by CellCheck test (IDEXX, BioResearch, Ludwigsburg, Germany). All compounds were dissolved in dimethyl sulfoxide to obtain a stock concentration of 10 mM.
(§5) The antiproliferative activity of all compounds was assessed by using the 3-(4.5-dimethylthiazolyl-2)-2,5-diphenyltetrazolium bromide (MTT) test. Cells were seeded in 96-well plates (nontissue culture treated) at a density of 1 × 10^5 cells/mL and treated with a single concentration of 1 μM for 72 h. […] In this case, cells were treated in triplicate with serially diluted compounds in the appropriate tissue culture medium at a range of 40–10 000 nM. Cells were incubated for 72 h at 37 °C, 5% CO2. Wells containing medium only were included on each plate and served as blanks for absorbance readings. MTT (Sigma, Buchs, Switzerland) was prepared as a 5 mg/mL stock solution in phosphate buffered saline (PBS) and filter-sterilized. MTT solution (22 μL) was added to each well, and tissue culture plates were incubated at 37 °C for 4 h. Cells were then lysed with 25% sodium dodecyl sulfate lysis buffer, and absorbance was read at 570 nm using a Beckman Coulter-AD340 plate reader.

MINO (MCL) = assay: MTT cell proliferation, lymphoma; settings: Homo sapiens, 72 h; for activity at 1 µM: of untreated cells, read-out: Proliferating cells (%); for IC50: MTT
Procedure: as §3, §4, §5

SU-DHL-10 (GCB DLBCL) = assay: MTT cell proliferation, lymphoma; settings: Homo sapiens, SU-DHL10, 72 h; for activity at 1 µM: of untreated cells, read-out: Proliferating cells (%); for IC50: MTT
Procedure: as §3, §4, §5

VL51 (MZL) = assay: MTT cell proliferation, lymphoma; settings: Homo sapiens, 72 h; for activity at 1 µM: of untreated cells, read-out: Proliferating cells (%); for IC50: MTT
Procedure: as §3, §4, §5

VL51 ibrutinib-resistant = assay: MTT cell proliferation, lymphoma; settings: Homo sapiens, 72 h, of untreated cells, read-out: Proliferating cells (%)
Procedure: as §3, §4, §5

[1] = tested on: VL51 idelalisib-resistant; assay: MTT cell proliferation, lymphoma; settings: Homo sapiens, 72 h, of untreated cells, read-out: Proliferating cells (%)
Procedure: as §3, §4, §5

SMILES	GI50 (CAKI-1) [µM]	GI50 (COLO 205) [µM]	GI50 (HCT-116) [µM]	GI50 (HCT-15) [µM]	GI50 (HL-60(TB)) [µM]	GI50 (HT29) [µM]	GI50 (IGROV1) [µM]	GI50 (M14) [µM]	GI50 (MCF7) [µM]	GI50 (MDA-MB-231/ATCC) [µM]	GI50 (MDA-MB-435) [µM]	GI50 (MOLT-4) [µM]	GI50 (NCI-H460) [µM]	GI50 (NCI/ADR-RES) [µM]	GI50 (PC-3) [µM]	GI50 (RPMI-8226) [µM]	GI50 (SF-268) [µM]	GI50 (SF-295) [µM]	GI50 (SK-OV-3) [µM]	GI50 (SNB-19) [µM]	further results
CCOC(=O)c1c(Cl)c2c(n1Cc1ccccc1)-c1oncc1CCC2 [Compound 70, Ethyl 7-Chloro-9-benzyl-4,5,6,9-tetrahydropyrrolo[2′,3′:3,4]cyclohepta[1,2-d][1,2]oxazole-8-carboxylate]	3.51	3.53	4.02	3.39	3.32	2.95	4.39	3.78	3.21	3.51	1.4	3.58	3.62	2.83	3.16	3.27	> 100	> 100	> 100	> 100	GI50 (SR): 1.8 µM; GI50 (SW-620): 3.81 µM; GI50 (TK-10): > 100 µM; GI50 (UACC-62): 4.01 µM; GI50 (KM12): 3.7 µM; GI50 (LOX IMVI): 5.26 µM; GI50 (NCI-H522): 1.29 µM; GI50 (OVCAR-3): 3.13 µM; activity at 1 µM (HBL1 (ABC DLBCL)): 104%; IC50 (HBL1 (ABC DLBCL)): > 10 µM; activity at 1 µM (MINO (MCL)): 104%; IC50 (MINO (MCL)): > 10 µM; activity at 1 µM (SU-DHL-10 (GCB DLBCL)): 69.5%; IC50 (SU-DHL-10 (GCB DLBCL)): 9 µM; activity at 1 µM (VL51 (MZL)): 108%; IC50 (VL51 (MZL)): > 10 µM; activity at 1 µM (VL51 ibrutinib-resistant): 104%; activity at 1 µM [1]: 111%
CCOC(=O)c1cc2c(n1Cc1ccccc1OC)-c1oncc1CCC2 [Compound 62, Ethyl 9-(2-Methoxybenzyl)-4,5,6,9-tetrahydropyrrolo[2′,3′:3,4]cyclohepta[1,2-d][1,2]oxazole-8-carboxylate]	3.51	0.87	3.79	2.24	3.04	0.91	1.99	3.67	0.71	9.12	0.35	5.68	3.88	1.36	2.48	4.11	46.2	1.38	2.7	64.7	GI50 (SR): 0.43 µM; GI50 (SW-620): 2.02 µM; GI50 (TK-10): 67.8 µM; GI50 (UACC-62): 3.37 µM; GI50 (KM12): 2.1 µM; GI50 (LOX IMVI): 7.64 µM; GI50 (NCI-H522): 0.35 µM; GI50 (OVCAR-3): 0.87 µM; activity at 1 µM (HBL1 (ABC DLBCL)): 128%; IC50 (HBL1 (ABC DLBCL)): > 5 µM; activity at 1 µM (MINO (MCL)): 104%; IC50 (MINO (MCL)): 4 µM; activity at 1 µM (SU-DHL-10 (GCB DLBCL)): 51.1%; IC50 (SU-DHL-10 (GCB DLBCL)): 3.6 µM; activity at 1 µM (VL51 (MZL)): 71.3%; IC50 (VL51 (MZL)): 3.2 µM; activity at 1 µM (VL51 ibrutinib-resistant): 80.3%; activity at 1 µM [1]: 63.6%
